From PubChem BioAssay (NCI)
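Each compound was tested at five concentrations against cells in 96-well plates for 48 hours. Abbreviation: GI50, concentration required for 50% inhibition of growth. At the TGI there is no net growth.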

Key:
Assay in all cases: growth of human tumour cells (NCI), 48 h
NCI-H23 lung = tested on: NCI-H23 lung
NCI-H460 lung = tested on: NCI-H460 lung
NCI-H522 lung = tested on: NCI-H522 lung
NCI/ADR-RES ovarian = tested on: NCI/ADR-RES ovarian
OVCAR-3 ovarian = tested on: OVCAR-3 ovarian
OVCAR-4 ovarian = tested on: OVCAR-4 ovarian
OVCAR-5 ovarian = tested on: OVCAR-5 ovarian
OVCAR-8 ovarian = tested on: OVCAR-8 ovarian
PC-3 prostate = tested on: PC-3 prostate
RPMI-8226 leukemia = tested on: RPMI-8226 leukemia
RXF 393 renal = tested on: RXF 393 renal
SF-268 CNS = tested on: SF-268 CNS
SF-295 CNS = tested on: SF-295 CNS
SF-539 CNS = tested on: SF-539 CNS
SK-MEL-2 melanoma = tested on: SK-MEL-2 melanoma
SK-MEL-28 melanoma = tested on: SK-MEL-28 melanoma
SK-MEL-5 melanoma = tested on: SK-MEL-5 melanoma
SK-OV-3 ovarian = tested on: SK-OV-3 ovarian
SN12C renal = tested on: SN12C renal
SNB-19 CNS = tested on: SNB-19 CNS
SNB-75 CNS = tested on: SNB-75 CNS
SR leukemia = tested on: SR leukemia
SW-620 colon = tested on: SW-620 colon
T-47D breast = tested on: T-47D breast
TK-10 renal = tested on: TK-10 renal
U251 CNS = tested on: U251 CNS
UACC-257 melanoma = tested on: UACC-257 melanoma
UACC-62 melanoma = tested on: UACC-62 melanoma
UO-31 renal = tested on: UO-31 renal

With Nc1c(C(=O)c2cccc(-c3ccncc3)c2)cnn1-c1ccc(F)cc1 the TGI (NCI-H23 lung) was > 25 µM, the GI50 (NCI-H460 lung) was > 25 µM and the TGI (NCI-H460 lung) was > 25 µM. For the same molecule, the GI50 (NCI-H522 lung) was 15.4 µM, the TGI (NCI-H522 lung) was > 25 µM and the GI50 (NCI/ADR-RES ovarian) was > 25 µM. For the same molecule, the TGI (NCI/ADR-RES ovarian) was > 25 µM, the GI50 (OVCAR-3 ovarian) was > 25 µM and the TGI (OVCAR-3 ovarian) was > 25 µM. The GI50 (OVCAR-4 ovarian) was > 25 µM, the TGI (OVCAR-4 ovarian) was > 25 µM and the GI50 (OVCAR-5 ovarian) was > 25 µM. The TGI (OVCAR-5 ovarian) was > 25 µM, the GI50 (OVCAR-8 ovarian) was > 25 µM and the TGI (OVCAR-8 ovarian) was > 25 µM. The GI50 (PC-3 prostate) was > 25 µM, the TGI (PC-3 prostate) was > 25 µM and the GI50 (RPMI-8226 leukemia) was > 15.2 µM. For the same molecule, the TGI (RPMI-8226 leukemia) was > 25 µM, the GI50 (RXF 393 renal) was > 25 µM and the TGI (RXF 393 renal) was > 25 µM. The GI50 (SF-268 CNS) was > 25 µM, the TGI (SF-268 CNS) was > 25 µM and the GI50 (SF-295 CNS) was > 25 µM. For the same molecule, the TGI (SF-295 CNS) was > 25 µM, the GI50 (SF-539 CNS) was > 25 µM and the TGI (SF-539 CNS) was > 25 µM. The GI50 (SK-MEL-2 melanoma) was > 25 µM, the TGI (SK-MEL-2 melanoma) was > 25 µM and the GI50 (SK-MEL-28 melanoma) was > 25 µM. For the same molecule, the TGI (SK-MEL-28 melanoma) was > 25 µM, the GI50 (SK-MEL-5 melanoma) was 5.69 µM and the TGI (SK-MEL-5 melanoma) was > 25 µM. The GI50 (SK-OV-3 ovarian) was > 25 µM, the TGI (SK-OV-3 ovarian) was > 25 µM and the GI50 (SN12C renal) was > 25 µM. The TGI (SN12C renal) was > 25 µM, the GI50 (SNB-19 CNS) was > 25 µM and the TGI (SNB-19 CNS) was > 25 µM. For the same molecule, the GI50 (SNB-75 CNS) was > 25 µM, the TGI (SNB-75 CNS) was > 25 µM and the GI50 (SR leukemia) was > 25 µM. For the same molecule, the TGI (SR leukemia) was > 25 µM, the GI50 (SW-620 colon) was > 25 µM and the TGI (SW-620 colon) was > 25 µM. For the same molecule, the GI50 (T-47D breast) was 9.94 µM, the TGI (T-47D breast) was > 25 µM and the GI50 (TK-10 renal) was > 25 µM. For the same molecule, the TGI (TK-10 renal) was > 25 µM, the GI50 (U251 CNS) was > 25 µM and the TGI (U251 CNS) was > 25 µM. The GI50 (UACC-257 melanoma) was > 25 µM, the TGI (UACC-257 melanoma) was > 25 µM and the GI50 (UACC-62 melanoma) was > 25 µM. The TGI (UACC-62 melanoma) was > 25 µM, the GI50 (UO-31 renal) was > 25 µM and the TGI (UO-31 renal) was > 25 µM.
